Data taken from BindingDB's records for patent US12226414 (Suzhou Zanrong Pharma, 2025).

Target: Serine/threonine-protein kinase ATR (Homo sapiens, UniProt Q13535)
Assay: ATR Biochemical Potency Assay
Description: ATR enzyme was made by ChemPartner (batch: CP-ATR-20161102-M2). 2× enzyme solutions were prepared in 1× kinase base buffer. 10 μl of 2× enzyme solution (final concentration: 2.5 nM) was added to each well of the 384-well assay plate containing 60 nl compound in each well. The plate was incubated at room temperature for 10 minutes. 2× peptide solutions were prepared with FAM-labeled peptide and ATP in the 1× kinase base buffer. 10 μl of 2× peptide solution was added to each well of the 384-well assay plate, which was incubated at 28° C. for 240 min. 40 μl of stop buffer was added to stop reaction. Data were collected by Caliper.

Sequence of Serine/threonine-protein kinase ATR (Q13535 whole entry): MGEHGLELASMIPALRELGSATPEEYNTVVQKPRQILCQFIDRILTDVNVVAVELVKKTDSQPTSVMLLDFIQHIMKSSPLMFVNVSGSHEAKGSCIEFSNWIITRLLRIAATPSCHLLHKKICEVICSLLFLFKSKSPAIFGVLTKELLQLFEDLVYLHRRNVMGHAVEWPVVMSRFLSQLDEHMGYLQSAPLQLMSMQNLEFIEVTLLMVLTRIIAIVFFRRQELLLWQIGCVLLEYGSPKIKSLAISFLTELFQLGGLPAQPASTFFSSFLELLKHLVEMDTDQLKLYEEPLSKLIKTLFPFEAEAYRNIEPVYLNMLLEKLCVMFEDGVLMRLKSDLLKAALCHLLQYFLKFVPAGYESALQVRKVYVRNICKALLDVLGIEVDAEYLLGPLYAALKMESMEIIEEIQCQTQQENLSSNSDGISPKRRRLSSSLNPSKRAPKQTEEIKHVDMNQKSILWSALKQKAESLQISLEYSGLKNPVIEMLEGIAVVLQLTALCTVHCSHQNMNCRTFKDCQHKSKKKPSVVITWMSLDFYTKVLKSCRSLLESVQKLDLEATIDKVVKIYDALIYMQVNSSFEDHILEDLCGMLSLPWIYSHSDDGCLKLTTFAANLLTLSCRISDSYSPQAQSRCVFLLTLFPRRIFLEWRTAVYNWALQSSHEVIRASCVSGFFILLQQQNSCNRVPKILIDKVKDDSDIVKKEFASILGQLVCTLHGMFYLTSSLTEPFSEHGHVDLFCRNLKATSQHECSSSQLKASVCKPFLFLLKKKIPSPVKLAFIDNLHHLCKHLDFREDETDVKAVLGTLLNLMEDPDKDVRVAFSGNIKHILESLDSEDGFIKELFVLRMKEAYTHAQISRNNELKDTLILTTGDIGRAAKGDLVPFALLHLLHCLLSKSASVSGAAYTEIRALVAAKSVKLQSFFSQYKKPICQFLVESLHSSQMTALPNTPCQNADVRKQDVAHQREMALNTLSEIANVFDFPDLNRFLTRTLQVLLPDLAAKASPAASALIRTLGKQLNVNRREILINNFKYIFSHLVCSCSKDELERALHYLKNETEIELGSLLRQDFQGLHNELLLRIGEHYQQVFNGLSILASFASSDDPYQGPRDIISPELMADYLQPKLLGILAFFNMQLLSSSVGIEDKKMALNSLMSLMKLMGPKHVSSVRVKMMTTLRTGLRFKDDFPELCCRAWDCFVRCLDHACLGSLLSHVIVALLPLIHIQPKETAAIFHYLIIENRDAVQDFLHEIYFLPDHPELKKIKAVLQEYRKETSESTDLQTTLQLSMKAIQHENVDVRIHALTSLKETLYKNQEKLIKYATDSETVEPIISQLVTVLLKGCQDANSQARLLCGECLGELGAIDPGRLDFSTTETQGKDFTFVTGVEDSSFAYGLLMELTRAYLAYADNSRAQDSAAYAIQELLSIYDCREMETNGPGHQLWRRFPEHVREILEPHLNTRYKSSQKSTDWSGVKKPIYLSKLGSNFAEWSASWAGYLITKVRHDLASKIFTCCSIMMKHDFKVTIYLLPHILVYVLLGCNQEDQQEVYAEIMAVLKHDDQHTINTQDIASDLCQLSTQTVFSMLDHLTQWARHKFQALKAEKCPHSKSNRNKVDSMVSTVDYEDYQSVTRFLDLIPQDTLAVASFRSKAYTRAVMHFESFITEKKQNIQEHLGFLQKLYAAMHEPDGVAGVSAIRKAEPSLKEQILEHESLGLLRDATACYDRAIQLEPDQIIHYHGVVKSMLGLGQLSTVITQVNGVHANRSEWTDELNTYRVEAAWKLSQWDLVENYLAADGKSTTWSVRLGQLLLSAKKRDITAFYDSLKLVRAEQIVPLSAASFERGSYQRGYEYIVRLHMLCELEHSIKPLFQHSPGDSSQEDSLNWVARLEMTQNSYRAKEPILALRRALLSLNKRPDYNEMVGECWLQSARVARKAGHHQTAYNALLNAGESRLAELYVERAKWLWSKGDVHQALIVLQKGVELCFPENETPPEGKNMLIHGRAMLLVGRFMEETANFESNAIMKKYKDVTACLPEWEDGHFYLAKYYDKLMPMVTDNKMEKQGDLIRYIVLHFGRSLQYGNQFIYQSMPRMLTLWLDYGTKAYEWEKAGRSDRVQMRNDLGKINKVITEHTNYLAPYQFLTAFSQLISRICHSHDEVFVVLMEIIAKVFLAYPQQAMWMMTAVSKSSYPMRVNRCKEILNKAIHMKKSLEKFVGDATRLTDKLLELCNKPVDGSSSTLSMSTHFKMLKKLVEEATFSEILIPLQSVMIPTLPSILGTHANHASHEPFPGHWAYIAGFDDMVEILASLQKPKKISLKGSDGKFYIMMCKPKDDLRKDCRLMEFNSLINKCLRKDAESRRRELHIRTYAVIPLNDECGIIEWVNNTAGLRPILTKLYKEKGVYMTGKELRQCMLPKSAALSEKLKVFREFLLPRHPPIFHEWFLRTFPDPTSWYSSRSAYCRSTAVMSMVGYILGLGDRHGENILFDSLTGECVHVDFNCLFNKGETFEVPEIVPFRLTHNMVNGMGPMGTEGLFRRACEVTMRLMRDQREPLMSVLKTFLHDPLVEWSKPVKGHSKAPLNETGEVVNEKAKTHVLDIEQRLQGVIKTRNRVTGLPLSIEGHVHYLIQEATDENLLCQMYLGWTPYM

CC(C)n1c(=O)n(C)c2nnc3cc(F)c(-c4ccc(OCCCN5CC[C@@H](F)C5)nc4)cc3c21 [US12226414, Example 15]
IC50: > 10 µM

CC(C)n1c(=O)n(C)c2nnc3cc(F)c(-c4ccc(OCCCN5CC[C@H](F)C5)nc4)cc3c21 [US12226414, Example 14]
IC50: > 10 µM
